Data set [1] concerns leukotriene E induced bronchoconstriction. Nature of the data set: Guinea pig bronchoconstriction, in vivo (aerosol). The note with it: aerosol at concentration inhibiting bronchoconstriction by 80%. More on the design: species or system guinea pig (Hartly strain). As for the experimental part:
(c) Guinea Pig Bronchoconstriction, In Vivo (Aerosol):
Male guinea pigs (Hartly strain) weighing 300 to 500 g are anesthetized with urethane (2 g/kg) intraperitoneally and a polyethylene cannula is inserted into the jugular vein for drug administration. Tracheal pressure is recorded from a cannula inserted in the trachea and connected to a Statham pressure transducer. After surgical preparation of the animals, a period of time is allowed for pulmonary functions to stabilize. The test compound is administered according to the following protocol. Propranolol (0.1 mg/kg) is administered intravenously while the animals breathed spontaneously. Five minutes thereafter, the animals are exposed for a five minute period to a 1% (w/v) aerosol solution of test compound (adjusted to an alkaline pH where necessary for drug solubilization) or to distilled water of the appropriate pH (for control purposes). A Monaghan (Model 750) ultrasonic nebulizer is used to administer all test compounds by inhalation. The nebulizer ultrasonic frequency is adjusted to produce particles in the 1-8μ diameter range (average 3μ). Aqueous solutions are prepared fresh and introduced into the chamber of the nebulizer. The output of the nebulizer is made available to the animal by directing a bias flow of aerosol through a y tube connected to the tracheal cannula. At the end of the exposure period, the animals are paralyzed with succinylcholine (1.2 mg/kg, i.v.) and mechanically respirated (Harvard rodent respirator) at 40 breaths/minute and 2.5 cc tidal volume. Animals are then challenged with a maximum constrictory dose of leukotriene E delivered intravenously 30 seconds after administration of the succinylcholine.
The change (cm H2 O) between pre and peak ventilatory pressure readings is averaged for three control animals and five drug treated animals. The percent inhibition is calculated from the following formula:
(Control-Drug Tested/Control)×100
When various drug concentrations are tested, the percent inhibition at each concentration is plotted as log concentration (abscissa) versus percent inhibition (ordinate) and the IC50 is determined from linear regression analysis.
In order to determine the aerosol half-life (t 1/2), the animals are prepared as described above, except that the time between aerosol exposure and challenge with leukotriene E is varied. All compounds are administered at the concentration necessary to inhibit leukotriene-induced bronchoconstriction by 80%. Biological half-life is calculated from plots of time (abscissa) versus log percent inhibition (ordinate).

A short description of data set [2]: LD50 in mice (acute toxicity). The note with it: mouse, in vivo.
Data set [3] concerns cutaneous anaphylaxis in passively sensitized rats. Nature of the data set: Inhibition of allergic mediator release in the rat passive cutaneous anaphylaxis test. The format is in vivo, rat (Sprague-Dawley). To be noted: po, p.o., read-out: ID50 inhibition of allergic mediator release (PCA test). As for the experimental part: (i) Inhibition of Cutaneous Anaphylaxis in Passively Sensitized Rats
(l) Preparation of Antiserum
IgE-containing rat antiserum (reaginic antiserum) was prepared according to the following procedure. Normal, male Sprague-Dawley rats (150-200 g) obtained from Charles River Laboratories, Wilmington, Mass., were immunized by an intraperitoneal injection of 0.5 ml Bordetella pertussis vaccine (Cannaught Laboratories, Willowdale, Toronto, Canada, 20 ou/ml) containing 100 μg egg albumin (Nutritional Biochemical Corp., Cleveland, Ohio). On day 16, Nippostrongylus brasiliensis (3000 larvae/0.1 ml) was administered subcutaneously and on day 21, 10 μg of egg albumin was administered intraperitoneally in 0.5 ml normal saline. On day 30, blood was collected by heart puncture and the serum was separated by centrifugation and refrigerated overnight at 5° C. […]
The passive cutaneous anaphylaxis (PCA) test was performed on 190-220 g male Sprague-Dawley rats (Charles River Breeding Laboratories, Wilmington, Mass.), in a manner similar to that described by J. Goose and A.M.J.N. Blair, Immunology, 16, 749(1969). […] The long and short axis of each wheal was measured with a metric vernier caliper and the average diameter was obtained for each reaction. […] The ID50 was calculated by the method of J. Berkson, J.Am.Stat.Assoc., 48, 565(1953).

Data set [4] relates to leukotriene E induced bronchoconstriction. Kind of data set: LTE-induced bronchoconstriction in guinea pigs, in vivo (i.v. / oral). More on the design: species or system guinea pig (Hartley strain). The note with it: Cavia porcellus, read-out: ID50 (the source's name).
[5] abbreviates: po, orally (2 hours pretreatment).

These results are taken from US4551460A, “Pyrido[2,1-b]quinazoline derivatives useful as agents for treatment of allergic conditions and vascular disorders involving thrombosis” (priority 1983, dated 1985).

SMILES strings stand for the structures. Like-named read-outs stand apart in the source and are kept apart here.

As usually defined, the LD50 is the dose at which mortality reaches 50%. High values mean a less toxic substance, low ones a more toxic substance. Take `CC(C)c1ccc2nc3ccc(C(=O)NCCCCn4ccnc4)cn3c(=O)c2c1` [Compound A, N-[4-(1H-imidazol-1-yl)butyl]-2-(1-methylethyl)-11-oxo-11H-pyrido[2,1-b]quinazoline-8-carboxamide]: in data set [1], the Biological half-life is on record as 56 min. For the same compound, the LD50 in data set [2] (ip, intraperitoneally) amounted to 22 mg/kg; in data set [2] (po, orally), 775 mg/kg. For the same compound, the ED50 in data set [3] (10 min, 10 minute pretreatment) turned out to be 20 mg/kg; in data set [4] (iv) it was 0.9 mg/kg; in data set [4] (setting [5]), 47 mg/kg.
For the compound `CC(C)c1ccc2nc3ccc(C(=O)NCCCCc4cccnc4)cn3c(=O)c2c1` [Compound B, 2-(1-methylethyl)-N-[4-(3-pyridyl)butyl]-11-oxo-11H-pyrido[2,1-b]quinazoline-8-carboxamide], in data set [1], the Biological half-life was 7 min. The compound further showed an LD50 in data set [2] (po, orally) greater than 1000 mg/kg. Moreover, the ED50 amounted to 21 mg/kg in data set [3] (5 min, 5 minute pretreatment); 0.3 mg/kg in data set [4] (iv); 60 mg/kg in data set [4] (setting [5]).
